Measurements from ChEMBL document CHEMBL1127044, “Preparation and pharmacological evaluation of enantiomers of certain nonoxygenated aporphines: (+)- and (-)-aporphine and (+)- and (-)-10-methylaporphine” (1993).
pIC50: −log10 of the molar value.

Organism: Cavia porcellus
Assay: Tested for inhibition of field-stimulation-induced contraction in the isolated guinea pig ileum
Type: functional
Conditions: read-out: ID50 (the source's name)

**Q.** With Cc1ccc2c(c1)-c1cccc3c1[C@@H](C2)N(C)CC3 as the compound, how does the pIC50 read?
**A.** Its pIC50 is 5.17.

**Q.** Cc1ccc2c(c1)-c1cccc3c1[C@H](C2)N(C)CC3 was tested. Which pIC50 did it give?
**A.** The pIC50 was 5.92.

**Q.** With CCCN(CCC)C1CCc2cccc(O)c2C1 (racemic) [8-OH-DPAT] as the compound, how does the pIC50 read?
**A.** Its pIC50 is 7.22.
